Like-named read-outs stand apart in the source and are kept apart here.
Experiments:
[1] = biological target: T1, AOC1 (Homo sapiens, UniProt P19801); assay: AOC1 biochemical assay (Amplex Red)
T1 construct: purchased R&D Systems 8297-AO-010
T1 sequence (P19801 20-751): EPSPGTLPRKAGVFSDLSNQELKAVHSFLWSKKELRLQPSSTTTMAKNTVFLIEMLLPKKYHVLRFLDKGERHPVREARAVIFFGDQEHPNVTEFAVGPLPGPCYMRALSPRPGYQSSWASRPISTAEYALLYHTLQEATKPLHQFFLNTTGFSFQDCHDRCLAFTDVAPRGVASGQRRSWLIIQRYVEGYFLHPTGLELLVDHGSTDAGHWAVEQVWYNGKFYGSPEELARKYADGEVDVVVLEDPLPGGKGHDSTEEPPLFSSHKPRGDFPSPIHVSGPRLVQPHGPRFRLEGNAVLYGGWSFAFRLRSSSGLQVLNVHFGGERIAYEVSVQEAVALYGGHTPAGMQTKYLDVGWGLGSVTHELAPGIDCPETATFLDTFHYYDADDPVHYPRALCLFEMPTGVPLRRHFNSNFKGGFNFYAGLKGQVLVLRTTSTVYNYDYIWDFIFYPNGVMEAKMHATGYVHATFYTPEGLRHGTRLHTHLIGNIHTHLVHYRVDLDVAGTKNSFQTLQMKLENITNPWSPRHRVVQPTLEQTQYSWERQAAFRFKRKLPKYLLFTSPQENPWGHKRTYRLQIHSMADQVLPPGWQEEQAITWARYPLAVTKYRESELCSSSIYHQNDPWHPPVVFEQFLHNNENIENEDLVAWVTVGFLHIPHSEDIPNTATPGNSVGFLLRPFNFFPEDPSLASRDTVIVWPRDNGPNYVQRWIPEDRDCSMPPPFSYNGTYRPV
Text: The Amplex® Red Assay (available from Thermo Fisher Scientific) provides a sensitive method for the detection of H2O2 generated during enzymatic reactions like the amine oxidation catalyzed by AOC1.

[2] = biological target: T2, AOC3 (Homo sapiens, UniProt Q16853); assay: AOC3 biochemical assay (MAO-Glo)
T2 construct: expressed in transfected cells; host or cells: CHO cells
T2 sequence (Q16853 1-763): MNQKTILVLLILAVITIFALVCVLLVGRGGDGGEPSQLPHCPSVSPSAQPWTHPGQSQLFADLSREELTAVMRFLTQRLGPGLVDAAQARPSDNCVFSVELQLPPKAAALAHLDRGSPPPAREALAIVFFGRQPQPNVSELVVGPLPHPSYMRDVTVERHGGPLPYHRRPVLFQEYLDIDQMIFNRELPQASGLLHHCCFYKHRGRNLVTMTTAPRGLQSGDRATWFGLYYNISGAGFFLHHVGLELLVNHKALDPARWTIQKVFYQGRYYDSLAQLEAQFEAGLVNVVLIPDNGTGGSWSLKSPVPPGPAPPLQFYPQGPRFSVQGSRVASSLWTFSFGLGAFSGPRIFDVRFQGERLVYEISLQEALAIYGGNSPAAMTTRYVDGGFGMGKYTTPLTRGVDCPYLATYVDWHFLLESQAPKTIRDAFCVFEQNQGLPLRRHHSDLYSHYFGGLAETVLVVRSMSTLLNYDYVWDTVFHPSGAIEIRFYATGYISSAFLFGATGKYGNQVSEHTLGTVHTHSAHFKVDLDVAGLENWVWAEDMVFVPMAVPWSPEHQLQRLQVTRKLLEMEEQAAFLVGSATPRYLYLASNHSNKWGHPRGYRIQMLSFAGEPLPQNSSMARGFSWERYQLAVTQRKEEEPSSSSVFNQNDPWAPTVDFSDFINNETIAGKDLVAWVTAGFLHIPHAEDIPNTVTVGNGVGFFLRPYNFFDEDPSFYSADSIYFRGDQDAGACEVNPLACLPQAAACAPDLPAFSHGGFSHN
Method: As substrate a derivate of the beetle luciferin ((4S)-4,5-dihydro-2-(6-hydroxybenzothiazolyl)-4-thiazole-carboxylic acid) is used, which is oxidized at a primary amine moiety. After a spontaneous elimination and a catalyzed esterase reaction, the turnover of the luciferine by the luciferase is recorded as a signal of AOC3 activity.
Recombinant CHO cells, overexpressing the human (1500 cells/well), mouse (1000 cells/well) or rat (500 cells/well) AOC3 enzyme are diluted in reaction buffer and added in a volume of 15 μL to the wells. After incubation for 20 minutes at 37° C., 2 μL of MAO substrate (dissolved in DMSO at 16 mM, adjusted to assay concentration in reaction buffer to a final assay concentration of 20 μM) is added and further incubated for 60 minutes at 37° C. The turnover of the substrate is determined by the addition of 20 μL of the detection-mix which was generated by the addition of reconstitution buffer with esterase (PROMEGA, #V1402) to the luciferine detection reagent (PROMEGA, #V1402).

[3] = Table 2, comparison with compounds of EP 2 695 881, read-out: IC50 AOC1
[4] = Table 2, comparison with compounds of EP 2 695 881, read-out: IC50 AOC3

Row | SMILES | IC50 [1, 3] [µM] | IC50 [2, 4] [µM] | IC50 ([1]; Table 1, read-out: AOC1 IC50) [µM] | IC50 ([2]; Table 1, read-out: AOC3 IC50) [µM]
1 | CC(=O)N1CCC(COc2ncc(-c3cccc(COC(=O)NC(=N)N)c3F)cn2)CC1 [Ex. 11, p. 221, reference compound] | 0.006 | 0.001 |  | 
2 | COC1CN(c2ncc(-c3cccc(COC(=O)NC(=N)N)c3F)cn2)C1 [Ex. 63, p. 227, reference compound] | 0.1 | 0.001 |  | 
3 | N=C(N)NC(=O)OCc1cccc(-c2cnc(OCC3CCN(C(=O)C4CC4)CC3)nc2)c1F [Ex. 74, p. 229, reference compound] | 0.008 | 0.001 |  | 
4 | N=C(N)NC(=O)OCc1cccc(-c2cnc(N3CCOCC3)nc2)c1F [Ex. 81, p. 229, reference compound] | 0.174 | 0.001 |  | 
5 | CCOc1ncc(-c2cccc(COC(=O)NC(=N)N)c2F)cn1 [Ex. 136, p. 235, reference compound] | 0.06 | 0.006 |  | 
6 | COCCOc1ncc(-c2cccc(COC(=O)NC(=N)N)c2F)cn1 [Ex. 197, p. 243, reference compound] | 0.097 | 0.006 |  | 
7 | Cc1ncc(-c2cccc(COC(=O)NC(=N)N)n2)cn1 [Example 01] |  |  | 7.6 | 0.027
8 | COc1ncc(-c2cccc(COC(=O)NC(=N)N)n2)cn1 [Example 02] |  |  | 8.07 | 0.01
9 | N=C(N)NC(=O)OCc1cccc(-c2cnc(C3CC3)nc2)n1 [Example 03, [6-(2-cyclopropylpyrimidin-5-yl)-2-pyridyl]methyl N-carbamimidoylcarbamate] |  |  | 8.03 | 0.008
10 | CN(C)c1ncc(-c2cccc(COC(=O)NC(=N)N)n2)cn1 [Example 04] |  |  | 1.72 | 0.005
11 | CCOc1ncc(-c2cccc(COC(=O)NC(=N)N)n2)cn1 [Example 05] |  |  | 2.39 | 0.015
12 | CSc1ncc(-c2cccc(COC(=O)NC(=N)N)n2)cn1 [Example 06] |  |  | 10.2 | 0.015
13 | CCCOc1ncc(-c2cccc(COC(=O)NC(=N)N)n2)cn1 [Example 07, [6-(2-propoxypyrimidin-5-yl)-2-pyridyl]methyl N-carbamimidoylcarbamate] |  |  | 2.01 | 0.005
14 | C#CCCOc1ncc(-c2cccc(COC(=O)NC(=N)N)n2)cn1 [Example 08, [6-(2-but-3-ynoxypyrimidin-5-yl)-2-pyridyl]methyl N-carbamimidoylcarbamate] |  |  | 2.69 | 0.004
15 | COCCNc1ncc(-c2cccc(COC(=O)NC(=N)N)n2)cn1 [Example 09] |  |  | 1.41 | 0.007
16 | COCCOc1ncc(-c2cccc(COC(=O)NC(=N)N)n2)cn1 [Example 10] |  |  | 3.48 | 0.011

The next lines start with the values.

Row | IC50 [1, 3] [µM] | IC50 [2, 4] [µM] | IC50 ([1]; Table 1, read-out: AOC1 IC50) [µM] | IC50 ([2]; Table 1, read-out: AOC3 IC50) [µM] | SMILES
17 |  |  | 2.39 | 0.005 | C[C@@H](F)COc1ncc(-c2cccc(COC(=O)NC(=N)N)n2)cn1 [Example 11]
18 |  |  | 7.53 | 0.005 | N=C(N)NC(=O)OCc1cccc(-c2cnc(C3CCOCC3)nc2)n1 [Example 12]
19 |  |  | 1.48 | 0.002 | COC1CN(c2ncc(-c3cccc(COC(=O)NC(=N)N)n3)cn2)C1 [Example 13]
20 |  |  | 1.34 | 0.003 | N=C(N)NC(=O)OCc1cccc(-c2cnc(N3CCOCC3)nc2)n1 [Example 14]
21 |  |  | 5.19 | 0.008 | N=C(N)NC(=O)OCc1cccc(-c2cnc(O[C@H]3CCOC3)nc2)n1 [Example 15]
22 |  |  | 0.718 | 0.009 | COCCN(C)c1ncc(-c2cccc(COC(=O)NC(=N)N)n2)cn1 [Example 16]
23 |  |  | 3.62 | 0.005 | N=C(N)NC(=O)OCc1cccc(-c2cnc(OCC3(F)CC3)nc2)n1 [Example 17, [6-[2-[(1-fluorocyclopropyl)methoxy]pyrimidin-5-yl]-2-pyridyl]-methyl N-carbamimidoylcarbamate]
24 |  |  | 1.4 | 0.003 | CC(F)(F)COc1ccc(-c2cccc(COC(=O)NC(=N)N)n2)cn1 [Example 18]
25 |  |  |  | 0.009 | CC(F)(F)CNc1ncc(-c2cccc(COC(=O)NC(=N)N)n2)cn1 [Example 19]

Reference: patent US9926292B2, “Pyridinyl derivatives, pharmaceutical compositions and uses thereof” (Boehringer Ingelheim International GmbH, priority 2016, dated 2018)
